In patent US10501748B2, “Methods and compositions for integration of an exogenous sequence within the genome of plants” (Dow AgroSciences LLC, priority 2013, dated 2019):

Key:
[1] = test system: cv. Clearfield Janz (S653/S653) and (N653/N653) plants; assay: basal tolerance/resistance to IMAZAMOX at the plant rooting stage, modified approach; format: in vivo, Triticum aestivum; settings: 2 weeks
Protocol: The basal tolerance of the cv. Clearfield Janz (S653/S653) genotype and basal resistance of the cv. Clearfield Janz (N653/N653) genotype to IMAZAMOX® at the plant rooting stage was determined using a modified approach, as cv. […] Seed for each cv. Clearfield Janz genotype was germinated using the aseptic approach described above for producing wheat mesophyll protoplasts. The germinated seedlings were multiplied in vitro by sub-culturing on multiplication medium. Following multiplication, plants for each genotype were transferred to 10 cm PETRI™ dishes containing plant rooting medium (½ MS, 0.5 mg/L NAA, 0.8% agar) supplemented with 0, 50, 100, 200 and 250 nM IMAZAMOX®, respectively. Three plants were placed in each PETRI™ dish. A total of 6 plants per genotype were tested for basal response at each IMAZAMOX® concentration. After incubation for 2 weeks at 24° C. under a 16/8 (light/dark) hour photoperiod in a growth room, the root formation response was recorded.
Clearfield Janz (N653/N653) genotype was restricted, compared to untreated samples, at 250 nM IMAZAMOX®. […] Clearfield Janz (S653/S653) genotype at all concentrations of IMAZAMOX® tested, compared to untreated samples.

[2] = test system: protoplasts of SEC-derived cell suspension culture of cv. Bobwhite MPB26RH; assay: basal tolerance to IMAZAMOX of protoplast agarose bead-type cultures (calli growth); format: cell-based, Triticum aestivum; settings: 2 weeks
Source text: IMAZAMOX® selection conditions are optimized using protoplasts derived from somatic embryogenic callus (SEC)-derived cell suspension culture of the wheat line cv. Bobwhite MPB26RH. While protoplasts derived from Bobwhite MPB26RH are non-totipotent (i.e., cannot be used to regenerate entire plants), the selection conditions established for enriching for events expressing the AHAS (653N) mutation are expected to be transferable to any protoplast-based transformation system based on a totipotent wheat genotype, which those in the art would recognize. The experiments conducted establish the basal tolerance of the wild-type donor wheat line cv. Bobwhite MPB26RH (S653/S653 genotype, which confers susceptibility to imidazolinones) to IMAZAMOX®. The use of IMAZAMOX® selection conditions stronger than basal tolerance will strongly enrich for transformed cells expressing the AHAS (S653N) mutation.
Further transformation methods are applicable. For example a cell suspension culture for wheat line cv. Bobwhite MPB26RH can be established. Somatic embryogenic callus (SEC) is induced from immature zygotic embryos of wheat line cv. […]
The basal tolerance of wheat line cv. Bobwhite MPB26RH to IMAZAMOX® is determined by incubating the agarose bead-type cultures in media supplemented with 0, 50, 100, 200, 400 and 600 nM IMAZAMOX® and assessing the rate of calli growth after 2 weeks.

## COCc1cnc(C2=NC(C)(C(C)C)C(=O)N2)c(C(=O)O)c1 (stereo not drawn) [IMAZAMOX]
[1]; cv. Clearfield Janz (N653/N653), 250 nM
  root formation compared to untreated samples: restricted
[1]; cv. Clearfield Janz (S653/S653), all concentrations tested (50-250 nM)
  root formation compared to untreated samples: severely restricted
[2]
  concentrations that impede calli development: higher than 200 nM
